Consider four molecules from patent publication EP3046573B1, “AMYLIN ANALOGUES” (Zealand Pharma A/S, priority 2013, dated 2015).

Numbered stars: 1 amine (or outer) side, 2 acyl side, 3 side chain; on linkers, the order of the positions; unused ones are H or OH. Bridge positions count the residues as written; N and C are the ends. Square brackets hold non-standard residues; d marks the D form. Peptide text beside a SMILES is read from it. * marks the point of attachment. C20 diacid = O=C(O)CCCCCCCCCCCCCCCCCCC(=O)*; γGlu = O=C(O)[C@H](CCC(=O)[*:2])N[*:1]; NMeI = CC[C@H](C)[C@H](NC)C(=O)O; Sar = CNCC(=O)O

The nature of data set [1]: Assessment of physical stability: fibril formation detected with Thioflavin T (ThT), lag-time. Type of data set: physicochemical. The following applies: 1 mg/ml peptide, 40 µM ThT, FND = Fibrillation not detected; for Fibrillation lag time (hours) pH 4.0 (Ac): 50 mM acetate buffer pH 4.0, 96 hours at 40°C; for Fibrillation lag time (hours) pH 7.0 (His): 50 mM histidine buffer pH 7.0, 96 hours at 40°C; for Fibrillation lag time (hours) pH 7.0 (Ph): 50 mM phosphate buffer pH 7.0, 96 hours at 40°C. In short, it runs like this: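 Test peptide at 1 mg/ml with 40 µM ThT in 50 mM phosphate (pH 7.0), 50 mM histidine (pH 7.0) or 50 mM acetate (pH 4.0), in triplicate, 40° C. for 96 h. Fluorescence read every 10 min after 300 s agitation. Lag-time (h) taken as intersection of linear fits to initial stable and growth phases.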

The next data set has as its system Sprague Dawley (SD) rats. The experiment in a line: Acute food intake and body weight in normal Sprague Dawley rats. The following applies: vehicle-corrected, dose 30 nmol/kg sc, once; for Body weight loss (%) after 96 hours: mean ± SEM, n = 8. The format is in vivo. In short, it runs like this:
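Normal male-unspecified SD rats, n = 8 per group, given a single s.c. peptide dose of 30 nmol/kg just before dark phase, with vehicle and positive control groups. Food intake recorded at 0, 4, 7, 10, 24, 48, 72 and 96 h; body weight daily; means ± SEM.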

The nature of data set [2]: Pharmacokinetic (PK) profiling in rats. The format is in vivo. Conditions: male, Sprague Dawley, rat, plasma, single sc bolus, 100 nmol/kg (18, NN96), 20 nmol/kg (72, 76), 30 nmol/kg (73, 82, 118, 162, 166, 172); for CL/F: apparent clearance; for half-life: terminal elimination half-life, read-out: t½ (converted). The protocol: Sprague Dawley male rats were given a single subcutaneous (sc) bolus of each peptide to be tested at doses as specified below..
Study A: Following the administration of a 100 nmol/kg dose of a test peptide of the invention (Compound 18) and a comparison pramlintide analogue NN96 (see Example 5, above), respectively, blood samples were drawn from the tail vein at 0.5, 3, 8, 15, 36, 60 and 81 hours post-dosing. 4 rats were used (2 rats per compound). The rats were euthanized immediately after the last blood sampling by overdose of O2/CO2.
Study B: 20 nmol/kg doses of Compound 72 and Compound 76, respectively, of the invention were administered. Blood samples were drawn by sublingual bleeding prior to dosing and at 2, 6, 12, 24, 48, 72 and 96 hours after dosing. 4 rats were used (2 rats per compound). The rats were euthanized immediately after the last blood sampling by overdose of O2/CO2.
Study C: 30 nmol/kg doses of Compound 73, Compound 82 and Compound 118, respectively, of the invention were administered. Blood samples were drawn from the tail vein prior to dosing and at 24, 48, 72 and 96 hours after dosing. Blood samples were taken from two rats at each time point, and only 2 blood samples were drawn from each rat, i.e. 8 rats were used for each compound. The rats were euthanized immediately after the last blood sampling by concussion and cervical dislocation.
Study D: 30 nmol/kg doses of Compound 162, Compound 166 and Compound 172 were administered. Blood samples were drawn from the tail vein prior to dosing and at 24, 48, 72, 96 and 168 hours after dosing. Blood samples were taken from two rats at each time point, and only 2 blood samples were drawn from each rat, i.e. 10 rats were used for each compound. The rats were euthanized immediately after the last blood sampling by concussion and cervical dislocation.
The dosing vehicle used for each test peptide was a mannitol-containing histidine buffer (pH 7.0). Plasma samples were analyzed after precipitation with ethanol by liquid chromatography mass spectrometry (LC-MS/MS). Mean plasma concentrations were used for calculation of the pharmacokinetic parameters using the non-compartmental approach in Phoenix WinNonlin 6.3.
Plasma terminal elimination half-life (t½) was determined as In(2)/λz, where λz is the magnitude of the slope of the log linear regression of the log concentration versus time profile during the terminal phase. Apparent clearance (CL/F) was determined as dose/AUCinf (sc), where AUCinf is the area under the plasma concentration vs. time curve extrapolated to infinity (AUCinf = AUClast + Clast/λz, where Clast is the last observed plasma concentration).

Data set [3] can be described thus: Assessment of chemical stability: normalized purity by RP-HPLC after incubation at 40 °C. The format is physicochemical. The following applies: normalized purity (T=0 set to 100), 0.2 mg/ml. In short, it runs like this:
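Peptides at 0.2 mg/ml in water adjusted to pH 4, 7.5 or 9, held at 40 °C for 7 days. Purity by RP-HPLC (C8/ammonium formate or C18/TFA gradients), UV 220 nm, as main-peak area-%; normalized to T=0 set as 100 for each pH.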

In the case of `CC[C@H](C)[C@@H](C(=O)N[C@@H](CC(C)C)C(=O)N[C@@H](CO)C(=O)N[C@@H](CO)C(=O)N[C@H](C(=O)N[C@@H](CC(N)=O)C(=O)N[C@H](C(=O)NCC(=O)N[C@@H](CO)C(=O)N[C@@H](CC(N)=O)C(=O)N[C@H](C(=O)N1CCC[C@H]1C(N)=O)[C@@H](C)O)C(C)C)[C@@H](C)O)N(C)C(=O)[C@H](C)NC(=O)CN(C)C(=O)[C@H](Cc1ccccc1)NC(=O)[C@H](CC(N)=O)NC(=O)[C@H](CC(N)=O)NC(=O)[C@H](CO)NC(=O)[C@H](CO)NC(=O)[C@H](CCCNC(=N)N)NC(=O)[C@H](Cc1c[nH]cn1)NC(=O)[C@H](CC(C)C)NC(=O)[C@H](Cc1ccccc1)NC(=O)[C@H](CCC(=O)O)NC(=O)[C@H](C)NC(=O)[C@H](CC(C)C)NC(=O)[C@H](CCCNC(=N)N)NC(=O)[C@H](CCC(N)=O)NC(=O)[C@@H](NC(=O)[C@H](C)NC(=O)[C@@H]1CSSC[C@H](NC(=O)[C@H](CCCNC(=N)N)NC(=O)CC[C@H](NC(=O)CCCCCCCCCCCCCCCCCCC(=O)O)C(=O)O)C(=O)N[C@@H](CC(N)=O)C(=O)N[C@@H]([C@@H](C)O)C(=O)N[C@@H](C)C(=O)N[C@@H]([C@@H](C)O)C(=O)N1)[C@@H](C)O` [Compound 18, [19CD]-isoGlu-RC()NTATC()ATQRLAEFLHRSSNNF-Gly(Me)-A-Ile(Me)-LSSTNVGSNTP-NH2] ({C20 diacid-γGlu}-RCNTATCATQRLAEFLHRSSNNF[Sar]A[NMeI]LSSTNVGSNTP-NH2; disulfide 2-7), in data set [1], the “Fibrillation lag time (hours) pH 4.0 (Ac)” value (“Fibrillation lag time … (Ac)” below) is given as 20 hours, the “Fibrillation lag time (hours) pH 7.0 (His)” value (from here on “Fibrillation lag time … (His)”) came to 33 hours and the “Fibrillation lag time (hours) pH 7.0 (Ph)” value (“Fibrillation lag time … (Ph)” below) is 33 hours. Also, in the data set with Sprague Dawley (SD) rats, the “Food intake inhibition (%) after 48 hours” value (from here on “Food intake inhibition (%)”) came out at 98% and the “Body weight loss (%) after 96 hours” value is 13 ± 0.8%. Moreover, in data set [2], the apparent clearance (CL/F) was 3.48 mL/h/kg and the half-life was 2260 min.

Regarding `CC[C@H](C)[C@@H](C(=O)N[C@@H](CC(C)C)C(=O)N[C@@H](CO)C(=O)N[C@@H](CO)C(=O)N[C@H](C(=O)N[C@@H](CC(=O)O)C(=O)N[C@H](C(=O)NCC(=O)N[C@@H](CO)C(=O)N[C@@H](CC(=O)O)C(=O)N[C@H](C(=O)N1CCC[C@H]1C(N)=O)[C@@H](C)O)C(C)C)[C@@H](C)O)N(C)C(=O)[C@H](C)NC(=O)CN(C)C(=O)[C@H](Cc1ccccc1)NC(=O)[C@H](CO)NC(=O)[C@H](CO)NC(=O)[C@H](CO)NC(=O)[C@H](CO)NC(=O)[C@H](CCCNC(=N)N)NC(=O)[C@H](Cc1c[nH]cn1)NC(=O)[C@H](CC(C)C)NC(=O)[C@H](Cc1ccccc1)NC(=O)[C@H](CCC(=O)O)NC(=O)[C@H](C)NC(=O)[C@H](CC(C)C)NC(=O)[C@H](CCCNC(=N)N)NC(=O)[C@H](CCC(N)=O)NC(=O)[C@@H](NC(=O)[C@H](C)NC(=O)[C@@H]1CSSC[C@H](NC(=O)[C@H](CCCNC(=N)N)NC(=O)CC[C@H](NC(=O)CCCCCCCCCCCCCCCCCCC(=O)O)C(=O)O)C(=O)N[C@@H](CC(N)=O)C(=O)N[C@@H]([C@@H](C)O)C(=O)N[C@@H](C)C(=O)N[C@@H]([C@@H](C)O)C(=O)N1)[C@@H](C)O` [Compound 73, [19CD]-isoGlu-RC()NTATC()ATQRLAEFLHRSSSSF-Gly(Me)-A-Ile(Me)-LSSTDVGSDTP-NH2] ({C20 diacid-γGlu}-RCNTATCATQRLAEFLHRSSSSF[Sar]A[NMeI]LSSTDVGSDTP-NH2; disulfide 2-7), in data set [1], the “Fibrillation lag time … (Ac)” value is on record as “FND”, the “Fibrillation lag time … (His)” value is “FND” and the “Fibrillation lag time … (Ph)” value is “FND”. Further, in the data set with Sprague Dawley (SD) rats, the “Food intake inhibition (%)” value is recorded as 93% and the “Body weight loss (%) after 96 hours” value amounted to 11 ± 1.8%. Also, in data set [2], the apparent clearance CL/F is 3.06 mL/h/kg and the half-life is 3320 min.

Regarding `CC[C@H](C)[C@@H](C(=O)N[C@@H](CC(C)C)C(=O)N[C@@H](CO)C(=O)N[C@@H](CO)C(=O)N[C@H](C(=O)N[C@@H](CC(N)=O)C(=O)N[C@H](C(=O)NCC(=O)N[C@@H](CO)C(=O)N[C@@H](CC(N)=O)C(=O)N[C@H](C(=O)N1CCC[C@H]1C(N)=O)[C@@H](C)O)C(C)C)[C@@H](C)O)N(C)C(=O)[C@H](C)NC(=O)CN(C)C(=O)[C@H](Cc1ccccc1)NC(=O)[C@H](CC(N)=O)NC(=O)[C@H](CC(N)=O)NC(=O)[C@H](CO)NC(=O)[C@H](CO)NC(=O)[C@H](CCCNC(=N)N)NC(=O)[C@H](Cc1c[nH]cn1)NC(=O)[C@H](CC(C)C)NC(=O)[C@H](Cc1ccccc1)NC(=O)[C@H](CCC(=O)O)NC(=O)[C@H](C)NC(=O)[C@H](CC(C)C)NC(=O)[C@H](CCCNC(=N)N)NC(=O)[C@H](CCC(N)=O)NC(=O)[C@@H](NC(=O)[C@H](C)NC(=O)[C@@H]1CSSC[C@H](NC(=O)[C@H](Cc2c[nH]c3ccccc23)NC(=O)[C@H](CCCNC(=N)N)NC(=O)CC[C@H](NC(=O)CCCCCCCCCCCCCCCCCCC(=O)O)C(=O)O)C(=O)N[C@@H](CC(N)=O)C(=O)N[C@@H]([C@@H](C)O)C(=O)N[C@@H](C)C(=O)N[C@@H]([C@@H](C)O)C(=O)N1)[C@@H](C)O` [Compound 174, [19CD]-isoGlu-RWC()NTATC()ATQRLAEFLHRSSNNF-Gly(Me)-A-Ile(Me)-LSSTNVGSNTP-NH2] ({C20 diacid-γGlu}-RWCNTATCATQRLAEFLHRSSNNF[Sar]A[NMeI]LSSTNVGSNTP-NH2; disulfide 3-8), in data set [1], the “Fibrillation lag time … (Ac)” value is “FND”, the “Fibrillation lag time … (His)” value was “FND” and the “Fibrillation lag time … (Ph)” value was “FND”. Moreover, in the data set on Sprague Dawley (SD) rats, the “Food intake inhibition (%)” value came out at 99% and the “Body weight loss (%) after 96 hours” value is reported as 8 ± 1.4%. Moreover, the “Chem. stability; 7 days, 40°C pH 4” value in data set [3] (pH 4, 7 days) is 92 area-%. For the same molecule, the “Chem. stability; 7 days, 40°C pH 7.5” value in data set [3] (pH 7.5, 7 days) is reported as 31 area-%. The “Chem. stability; 7 days, 40°C pH 9” value in data set [3] (pH 9, 7 days) was determined as 39 area-%.

With `CC[C@H](C)[C@H](NC(=O)[C@@H]1CCCN1C(=O)CNC(=O)[C@H](Cc1ccccc1)NC(=O)[C@H](CC(N)=O)NC(=O)[C@H](CC(N)=O)NC(=O)[C@H](CO)NC(=O)[C@H](CO)NC(=O)[C@H](Cc1c[nH]cn1)NC(=O)[C@H](Cc1c[nH]cn1)NC(=O)[C@H](CC(C)C)NC(=O)[C@H](Cc1ccccc1)NC(=O)[C@H](CCC(=O)O)NC(=O)[C@H](C)NC(=O)[C@H](CC(C)C)NC(=O)[C@H](CCCNC(=N)N)NC(=O)[C@H](CCC(N)=O)NC(=O)[C@@H](NC(=O)[C@H](C)NC(=O)[C@@H]1CSSC[C@H](NC(=O)[C@H](CCCNC(=N)N)NC(=O)CC[C@H](NC(=O)CCCCCCCCCCCCCCCCCCC(=O)O)C(=O)O)C(=O)N[C@@H](CC(N)=O)C(=O)N[C@@H]([C@@H](C)O)C(=O)N[C@@H](C)C(=O)N[C@@H]([C@@H](C)O)C(=O)N1)[C@@H](C)O)C(=O)N[C@@H](CC(C)C)C(=O)N1CCC[C@H]1C(=O)N1CCC[C@H]1C(=O)N[C@H](C(=O)N[C@@H](CC(N)=O)C(=O)N[C@H](C(=O)NCC(=O)N[C@@H](CO)C(=O)N[C@@H](CC(N)=O)C(=O)N[C@H](C(=O)N1CCC[C@H]1C(N)=O)[C@@H](C)O)C(C)C)[C@@H](C)O` [NN96, N-α-[(S)-4-carboxy-4-(19-carboxynonadecanoylamino)butyryl]-[Arg1,Glu14,His17,Pro37]-pramlintide, reference compound] ({C20 diacid-γGlu}-RCNTATCATQRLAEFLHHSSNNFGPILPPTNVGSNTP-NH2; disulfide 2-7), in data set [2], the CL/F was 4.73 mL/h/kg and the half-life is 2080 min.
